From article PMC8533363, “Effective Perturbations on the Amplitude and Hysteresis of Erg-Mediated Potassium Current Caused by 1-Octylnonyl 8-[(2-hydroxyethyl)[6-oxo-6(undecyloxy)hexyl]amino]-octanoate (SM-102), a Cationic Lipid” (Biomedicines, 2021)

Molecular target: T1, erg-mediated K+ (Kerg, KV11) channel (Rattus norvegicus, UniProt O08962)
T1 construct: gene Kcnh2; native channel in GH3 pituitary tumor cells
T1 sequence (O08962 1-1163): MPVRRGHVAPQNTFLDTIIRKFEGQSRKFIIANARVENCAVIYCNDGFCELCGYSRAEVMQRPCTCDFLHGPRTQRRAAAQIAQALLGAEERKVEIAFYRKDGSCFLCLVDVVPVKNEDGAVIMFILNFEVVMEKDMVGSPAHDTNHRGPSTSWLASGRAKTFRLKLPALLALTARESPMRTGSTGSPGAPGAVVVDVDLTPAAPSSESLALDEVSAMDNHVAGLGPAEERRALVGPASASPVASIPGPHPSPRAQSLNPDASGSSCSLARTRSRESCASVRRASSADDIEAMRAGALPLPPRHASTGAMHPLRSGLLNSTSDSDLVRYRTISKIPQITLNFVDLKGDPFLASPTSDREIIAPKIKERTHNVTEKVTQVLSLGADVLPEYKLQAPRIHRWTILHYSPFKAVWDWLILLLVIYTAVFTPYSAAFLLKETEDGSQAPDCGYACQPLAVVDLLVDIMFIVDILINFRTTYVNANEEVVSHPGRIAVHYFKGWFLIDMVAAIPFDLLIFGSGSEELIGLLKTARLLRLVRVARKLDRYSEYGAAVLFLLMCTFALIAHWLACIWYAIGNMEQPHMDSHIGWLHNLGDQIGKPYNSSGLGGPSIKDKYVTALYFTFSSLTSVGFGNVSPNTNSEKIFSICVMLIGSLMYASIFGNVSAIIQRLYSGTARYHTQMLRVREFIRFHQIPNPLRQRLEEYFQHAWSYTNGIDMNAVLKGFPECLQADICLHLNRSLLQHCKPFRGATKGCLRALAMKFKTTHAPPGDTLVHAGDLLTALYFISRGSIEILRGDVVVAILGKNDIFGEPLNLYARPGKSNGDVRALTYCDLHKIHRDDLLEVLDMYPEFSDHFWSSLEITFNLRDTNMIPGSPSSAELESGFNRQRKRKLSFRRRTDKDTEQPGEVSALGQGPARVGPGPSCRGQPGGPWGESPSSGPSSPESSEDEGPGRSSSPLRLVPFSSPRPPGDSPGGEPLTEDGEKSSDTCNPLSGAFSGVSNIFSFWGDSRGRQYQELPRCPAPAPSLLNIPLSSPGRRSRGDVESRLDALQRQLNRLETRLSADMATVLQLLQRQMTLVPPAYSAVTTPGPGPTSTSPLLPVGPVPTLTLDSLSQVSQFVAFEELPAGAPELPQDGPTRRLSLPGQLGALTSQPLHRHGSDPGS
Assay: whole-cell patch clamp of native IK(erg) in GH3 cells; concentration-response and deactivation kinetics (KD […])
Assay type: cell-based

## CCCCCCCCCCCOC(=O)CCCCCN(CCO)CCCCCCCC(=O)OC(CCCCCCCC)CCCCCCCC [SM-102, 1-octylnonyl 8-[(2-hydroxyethyl)[6-oxo-6-(undecyloxy)hexyl]amino]-octanoate]
  IC50: 108 µM
